Assay results: patent publication WO2023132380A1, “Polynucleotide for cancer treatment encoding 5'-nucleotidase modified protein” (Bpgene Co Ltd, priority 2022, dated 2023)

Legend:
[1] = biological target: Human cytosolic 5'deoxyribonucleotidase hdNT-1 (Homo sapiens, UniProt Q8TCD5); settings: Preferred substrate, References: J. Biol. Chem. 265:6589-6595 (1990), Biochemical Pharmacol. 66: 471-479 (2003); cited from earlier work
[2] = biological target: Murine cytosolic 5'deoxyribnucleotidase mdNT-1 (Mus musculus, UniProt Q9JM14); settings: Preferred substrate, References: J. Biol. Chem. 275:5409-5415 (1990), Biochemical Pharmacol. 66: 471-479 (2003); cited from earlier work
[3] = test system: PBS2 TMP phosphohydrolase (T001), Thymidylate 5'-phosphohydrolase derived from Bacteriophage PBS2, SEQ ID NO: 3; settings: Preferred substrate, References: Methods Enzymol. 51:285-290 (1978), Also In house data; cited from earlier work
[4] = biological target: T1, Human mitochondrial 5'doxyribonucleotidase NT5M (hdNT-2) (Homo sapiens, UniProt Q9NPB1); settings: Preferred substrate, References: Biochem. 46:13809-13818 (2007), Biochemical Pharmacol. 66: 471-479 (2003); cited from earlier work
[5] = biological target: T1, Human mitochondrial 5'doxyribonucleotidase NT5M (hdNT-2); assay: Preferred substrate (km), Table 4: NT5M (hdNT-2); type: biochemical; settings: human NT5M compared with T001, according to Table 4

Human cytosolic 5'deoxyribonucleotidase hdNT-1, sequence (Q8TCD5 whole entry): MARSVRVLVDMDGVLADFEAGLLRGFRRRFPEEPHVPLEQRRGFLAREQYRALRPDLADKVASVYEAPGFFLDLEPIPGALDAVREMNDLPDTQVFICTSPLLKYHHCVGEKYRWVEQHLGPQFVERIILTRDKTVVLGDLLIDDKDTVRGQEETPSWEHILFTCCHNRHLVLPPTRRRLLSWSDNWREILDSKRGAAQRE
Murine cytosolic 5'deoxyribnucleotidase mdNT-1, sequence (Q9JM14 whole entry): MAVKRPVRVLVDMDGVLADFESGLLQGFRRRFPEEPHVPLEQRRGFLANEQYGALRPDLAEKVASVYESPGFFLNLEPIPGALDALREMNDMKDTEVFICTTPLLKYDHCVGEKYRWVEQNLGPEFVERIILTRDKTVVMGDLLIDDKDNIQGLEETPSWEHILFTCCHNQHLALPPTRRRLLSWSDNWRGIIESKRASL
T1 sequence (Q9NPB1 32-228): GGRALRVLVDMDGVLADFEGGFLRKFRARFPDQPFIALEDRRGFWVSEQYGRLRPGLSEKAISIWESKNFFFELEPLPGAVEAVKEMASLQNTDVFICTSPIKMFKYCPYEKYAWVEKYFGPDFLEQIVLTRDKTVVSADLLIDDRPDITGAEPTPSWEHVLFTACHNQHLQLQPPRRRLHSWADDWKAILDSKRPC

Row | Compound | Km [1] [µM] | Km [2] [µM] | Km [3] [µM] | Km [4] [µM] | affinity for dTMP, times lower [5]
1 | Nc1ncnc2c1ncn2[C@H]1C[C@H](O)[C@@H](COP(=O)(O)O)O1 [dAMP] | 3000 | 1000 | – | – | –
2 | Nc1nc2c(ncn2[C@H]2C[C@H](O)[C@@H](COP(=O)(O)O)O2)c(=O)[nH]1 [dGMP] | 3300 | 1200 | 700 | 90 | –
3 | Cc1cn([C@H]2C[C@H](O)[C@@H](COP(=O)(O)O)O2)c(=O)[nH]c1=O [dTMP, thymidylate] | 1500 | 1400 | 10 | 300 | about 30 times
4 | O=c1ccn([C@H]2C[C@H](O)[C@@H](COP(=O)(O)O)O2)c(=O)[nH]1 [dUMP] | 1500 | 800 | 800 | 160 | –
